Test results published in patent publication US10681909B2, “Herbicidal triazoles” (FMC Corporation, priority 2014, dated 2020).

How the values were obtained:
[1] = tested on: barnyardgrass; assay: Test B flooded paddy test; assay type: in vivo, Echinochloa crus-galli; details: applied to paddy water at 2-leaf stage, visual rating after 13 to 15 d, scale 0 (no effect) to 100 (complete control)
Excerpt: (§1) At time of treatment, test pots were flooded to 3 cm above the soil surface, treated by application of test compounds directly to the paddy water, and then maintained at that water depth for the duration of the test. Treated plants and controls were maintained in a greenhouse for 13 to 15 d, after which time all species were compared to controls and visually evaluated. […] A dash (-) response means no test result.

[2] = tested on: corn; assay: Test A postemergence; assay type: in vivo, Zea mays; details: 0 to 100 scale (0 no effect, 100 complete control), approx. 10 d
Excerpt: (§2) Seeds of plant species selected from barnyardgrass (Echinochloa crus-galli), crabgrass, large (large crabgrass, Digitaria sanguinalis), kochia (Kochia scoparia), ragweed (common ragweed, Ambrosia elatior), foxtail, giant (giant foxtail, Setaria faberii), morningglory (Ipomoea spp.), pigweed (Amaranthus retroflexus), velvetleaf (Abutilon theophrasti), ryegrass, Italian (Italian ryegrass, Lolium multiflorum), wheat (Triticum aestivum), and corn (Zea mays) were planted into a blend of loam soil and sand and treated preemergence with a directed soil spray using test chemicals formulated in a non-phytotoxic solvent mixture which included a surfactant. At the same time, plants selected from these crop and weed species and also blackgrass (Alopecurus myosuroides), and galium (catchweed bedstraw, Galium aparine), were planted in pots containing the same blend of loam soil and sand and treated with postemergence applications of test chemicals formulated in the same manner. Plants ranged in height from 2 to 10 cm and were in the one- to two-leaf stage for the postemergence treatment. […] A dash (-) response means no test result.

[3] = tested on: morningglory; assay: Test A preemergence; assay type: in vivo, Ipomoea spp.; details: 0 to 100 scale (0 no effect, 100 complete control)
Excerpt: as §2

[4] = tested on: pigweed; assay: Test A preemergence; assay type: in vivo, Amaranthus retroflexus; details: 0 to 100 scale (0 no effect, 100 complete control)
Excerpt: as §2

[5] = tested on: wheat; assay: Test A postemergence; assay type: in vivo, Triticum aestivum; details: 0 to 100 scale (0 no effect, 100 complete control), approx. 10 d
Excerpt: as §2

[6] = tested on: velvetleaf; assay: Test A preemergence; assay type: in vivo, Abutilon theophrasti; details: 0 to 100 scale (0 no effect, 100 complete control)
Excerpt: as §2

[7] = tested on: velvetleaf; assay: Test A postemergence; assay type: in vivo, Abutilon theophrasti; details: 0 to 100 scale (0 no effect, 100 complete control), approx. 10 d
Excerpt: as §2

[8] = tested on: foxtail, giant; assay: Test A preemergence; assay type: in vivo, Setaria faberii; details: 0 to 100 scale (0 no effect, 100 complete control)
Excerpt: as §2

[9] = tested on: crabgrass, large; assay: Test A postemergence; assay type: in vivo, Digitaria sanguinalis; details: 0 to 100 scale (0 no effect, 100 complete control), approx. 10 d
Excerpt: as §2

[10] = tested on: foxtail, giant; assay: Test A postemergence; assay type: in vivo, Setaria faberii; details: 0 to 100 scale (0 no effect, 100 complete control), approx. 10 d
Excerpt: as §2

[11] = tested on: morningglory; assay: Test A postemergence; assay type: in vivo, Ipomoea spp.; details: 0 to 100 scale (0 no effect, 100 complete control), approx. 10 d
Excerpt: as §2

[12] = tested on: barnyardgrass; assay: Test A postemergence; assay type: in vivo, Echinochloa crus-galli; details: 0 to 100 scale (0 no effect, 100 complete control), approx. 10 d
Excerpt: as §2

[13] = tested on: barnyardgrass; assay: Test A preemergence; assay type: in vivo, Echinochloa crus-galli; details: 0 to 100 scale (0 no effect, 100 complete control)
Excerpt: as §2

[14] = tested on: sedge, umbrella; assay: Test B flooded paddy test; assay type: in vivo, Cyperus difformis; details: applied to paddy water at 2-leaf stage, visual rating after 13 to 15 d, scale 0 (no effect) to 100 (complete control)
Excerpt: as §1

[15] = tested on: rice; assay: Test B flooded paddy test; assay type: in vivo, Oryza sativa; details: applied to paddy water at 2-leaf stage, visual rating after 13 to 15 d, scale 0 (no effect) to 100 (complete control)
Excerpt: as §1

[16] = tested on: wheat; assay: Test A preemergence; assay type: in vivo, Triticum aestivum; details: 0 to 100 scale (0 no effect, 100 complete control)
Excerpt: as §2

[17] = tested on: crabgrass, large; assay: Test A preemergence; assay type: in vivo, Digitaria sanguinalis; details: 0 to 100 scale (0 no effect, 100 complete control)
Excerpt: as §2

[18] = tested on: ducksalad; assay: Test B flooded paddy test; assay type: in vivo, Heteranthera limosa; details: applied to paddy water at 2-leaf stage, visual rating after 13 to 15 d, scale 0 (no effect) to 100 (complete control)
Excerpt: as §1

[19] = tested on: pigweed; assay: Test A postemergence; assay type: in vivo, Amaranthus retroflexus; details: 0 to 100 scale (0 no effect, 100 complete control), approx. 10 d
Excerpt: as §2

[20] = tested on: corn; assay: Test A preemergence; assay type: in vivo, Zea mays; details: 0 to 100 scale (0 no effect, 100 complete control)
Excerpt: as §2

| SMILES | Plant response rating, Corn ([2]; 125 g ai/ha) | Plant response rating, Corn ([2]; 500 g ai/ha) | Plant response rating, Morningglory ([3]; 125 g ai/ha) | Plant response rating, Morningglory ([3]; 500 g ai/ha, approx. 10 d) | Plant response rating, Pigweed ([4]; 125 g ai/ha) | Plant response rating, Pigweed ([4]; 500 g ai/ha, approx. 10 d) | Plant response rating, Wheat ([5]; 125 g ai/ha) | Plant response rating, Wheat ([5]; 500 g ai/ha) | Plant response rating, Velvetleaf ([6]; 125 g ai/ha) | Plant response rating, Velvetleaf ([6]; 500 g ai/ha, approx. 10 d) | Plant response rating, Velvetleaf ([7]; 125 g ai/ha) | Plant response rating, Velvetleaf ([7]; 500 g ai/ha) | Plant response rating, Foxtail, Giant ([8]; 125 g ai/ha) | Plant response rating, Foxtail, Giant ([8]; 500 g ai/ha, approx. 10 d) | Plant response rating, Crabgrass, Large ([9]; 125 g ai/ha) | Plant response rating, Crabgrass, Large ([9]; 500 g ai/ha) | Plant response rating, Foxtail, Giant ([10]; 125 g ai/ha) | Plant response rating, Foxtail, Giant ([10]; 500 g ai/ha) | Plant response rating, Morningglory ([11]; 125 g ai/ha) | Plant response rating, Morningglory ([11]; 500 g ai/ha) | further results |
| --- | --- | --- | --- | --- | --- | --- | --- | --- | --- | --- | --- | --- | --- | --- | --- | --- | --- | --- | --- | --- | --- |
| CCCOc1nc(-c2ccc(F)cc2)nn1Cc1ccnc(C(F)(F)F)c1 [Compound 10] | 20 | 30 | 10 | 20 | 100 | 100 | 10 | 10 | 0 | 30 | 50 | 80 | 100 | 100 | 40 | 90 | 50 | 90 | 50 | 90 | Plant response rating, Barnyardgrass, Flood ([1]; 125 g ai/ha): 45; Plant response rating, Barnyardgrass ([12]; 125 g ai/ha): 40; Plant response rating, Barnyardgrass ([12]; 500 g ai/ha): 80; Plant response rating, Barnyardgrass ([13]; 125 g ai/ha): 30; Plant response rating, Barnyardgrass ([13]; 500 g ai/ha, approx. 10 d): 100; Plant response rating, Sedge, Umbrella, Flood ([14]; 125 g ai/ha): 80; Plant response rating, Rice, Flood ([15]; 125 g ai/ha): 20; Plant response rating, Wheat ([16]; 125 g ai/ha): 0; Plant response rating, Wheat ([16]; 500 g ai/ha, approx. 10 d): 20; Plant response rating, Crabgrass, Large ([17]; 125 g ai/ha): 100; Plant response rating, Crabgrass, Large ([17]; 500 g ai/ha, approx. 10 d): 100; Plant response rating, Ducksalad, Flood ([18]; 125 g ai/ha): 70; Plant response rating, Pigweed ([19]; 125 g ai/ha): 100; Plant response rating, Pigweed ([19]; 500 g ai/ha): 100; Plant response rating, Corn ([20]; 125 g ai/ha): 0; Plant response rating, Corn ([20]; 500 g ai/ha, approx. 10 d): 20 |
| CCCc1nc(-c2ccc(Cl)cc2)nn1Cc1ccnc(C(F)(F)F)c1 [Compound 22] | 20 | 50 | 10 | 70 | 100 | 100 | 30 | 40 | 20 | 40 | 60 | 100 | 100 | 100 | 100 | 100 | 70 | 80 | 50 | 80 | Plant response rating, Barnyardgrass, Flood ([1]; 250 g ai/ha): 0; Plant response rating, Barnyardgrass ([12]; 125 g ai/ha): 40; Plant response rating, Barnyardgrass ([12]; 500 g ai/ha): 60; Plant response rating, Barnyardgrass ([13]; 125 g ai/ha): 40; Plant response rating, Barnyardgrass ([13]; 500 g ai/ha, approx. 10 d): 70; Plant response rating, Sedge, Umbrella, Flood ([14]; 250 g ai/ha): 0; Plant response rating, Rice, Flood ([15]; 250 g ai/ha): 0; Plant response rating, Wheat ([16]; 125 g ai/ha): 10; Plant response rating, Wheat ([16]; 500 g ai/ha, approx. 10 d): 20; Plant response rating, Crabgrass, Large ([17]; 125 g ai/ha): 100; Plant response rating, Crabgrass, Large ([17]; 500 g ai/ha, approx. 10 d): 100; Plant response rating, Ducksalad, Flood ([18]; 250 g ai/ha): 0; Plant response rating, Pigweed ([19]; 125 g ai/ha): 100; Plant response rating, Pigweed ([19]; 500 g ai/ha): 100; Plant response rating, Corn ([20]; 125 g ai/ha): 10; Plant response rating, Corn ([20]; 500 g ai/ha, approx. 10 d): 20 |
| CCc1nc(-c2cccc(C(F)(F)F)c2)nn1Cc1ccnc(C(F)(F)F)c1 [Compound 11] | 20 | 50 | 0 | 20 | 30 | 100 | 10 | 20 | 0 | 0 | 50 | 100 | 20 | 90 | 20 | 60 | 20 | 60 | 80 | 90 | Plant response rating, Barnyardgrass, Flood ([1]; 250 g ai/ha): 0; Plant response rating, Barnyardgrass ([12]; 125 g ai/ha): 0; Plant response rating, Barnyardgrass ([12]; 500 g ai/ha): 50; Plant response rating, Barnyardgrass ([13]; 125 g ai/ha): 0; Plant response rating, Barnyardgrass ([13]; 500 g ai/ha, approx. 10 d): 30; Plant response rating, Sedge, Umbrella, Flood ([14]; 250 g ai/ha): 0; Plant response rating, Rice, Flood ([15]; 250 g ai/ha): 0; Plant response rating, Wheat ([16]; 125 g ai/ha): 0; Plant response rating, Wheat ([16]; 500 g ai/ha, approx. 10 d): 0; Plant response rating, Crabgrass, Large ([17]; 125 g ai/ha): 20; Plant response rating, Crabgrass, Large ([17]; 500 g ai/ha, approx. 10 d): 90; Plant response rating, Ducksalad, Flood ([18]; 250 g ai/ha): 0; Plant response rating, Pigweed ([19]; 125 g ai/ha): 80; Plant response rating, Pigweed ([19]; 500 g ai/ha): 100; Plant response rating, Corn ([20]; 125 g ai/ha): 0; Plant response rating, Corn ([20]; 500 g ai/ha, approx. 10 d): 0 |
